Source: ChEMBL document CHEMBL1133884, “Microwave-assisted [6+4]-cycloaddition of fulvenes and alpha-pyrones to azulene-indoles: facile syntheses of novel antineoplastic agents” (Bioorg Med Chem Lett, 2001)

Columns and labels:
A498 = test: In vitro inhibitory concentration against renal cancer cell line A498; assay type: functional, cell-based; conditions: Homo sapiens
[1] = Average inhibitory concentration against 60 human cell lines was reported; assay type: functional
EKVX = test: In vitro inhibitory concentration against non small cell lung EKVX cell line; assay type: functional, cell-based; conditions: Homo sapiens
Hs-578T = test: In vitro inhibitory concentration against breast cancer cell line Hs 578.T; assay type: functional, cell-based; conditions: Homo sapiens
NCI-H322M = test: In vitro inhibitory concentration against non small cell lung NCI-H322M cell line; assay type: functional, cell-based; conditions: Homo sapiens
T47D = test: In vitro inhibitory concentration against breast cancer cell line T-47D; assay type: functional, cell-based; conditions: Homo sapiens
UACC-257 = test: In vitro inhibitory concentration against melanoma cell line UACC-257; assay type: functional, cell-based; conditions: Homo sapiens
CAKI-1 = test: In vitro inhibitory concentration against renal cancer cell line […]; assay type: functional, cell-based; conditions: Homo sapiens
U-251 = test: In vitro inhibitory concentration against CNS cancer cell line U251; assay type: functional, cell-based; conditions: Homo sapiens
UO-31 = test: In vitro inhibitory concentration against renal cancer cell line UO-31; assay type: functional, cell-based; conditions: Homo sapiens
HOP-92 = test: In vitro inhibitory concentration against non small cell lung HOP-92 cell line; assay type: functional, cell-based; conditions: Homo sapiens
PC-3 = test: In vitro inhibitory concentration against prostate cancer cell line PC-3; assay type: functional, cell-based; conditions: Homo sapiens
K562 = test: In vitro inhibitory concentration against leukemia cell line K-562; assay type: functional, cell-based; conditions: Homo sapiens
NCI-H226 = test: In vitro inhibitory concentration against non small cell lung NCI-H226 cell line; assay type: functional, cell-based; conditions: Homo sapiens
IGROV-1 = test: In vitro inhibitory concentration against ovarian cancer cell line IGROV1; assay type: functional, cell-based; conditions: Homo sapiens
SR = test: In vitro inhibitory concentration against leukemia cell line SR; assay type: functional, cell-based; conditions: Homo sapiens

Row | IC50 (A498) [µM] | IC50 [1] [µM] | IC50 (EKVX) [µM] | IC50 (NCI-H322M) [µM] | IC50 (CAKI-1) [µM] | IC50 (HOP-92) [µM] | IC50 (K562) [µM] | IC50 (NCI-H226) [µM] | Structure (SMILES) | other results
1 | 13.8 | 2.51 | 1 | 17 |  |  |  |  | Cc1c2cccc-2c(OCCO)cc2c1[nH]c1ccccc12 | IC50 (Hs-578T): 0.93 µM
2 | 21.9 | 5.37 | 1.78 |  |  |  |  |  | Cc1c2cccc-2ccc2c1[nH]c1ccc(Br)cc12 | IC50 (T47D): 1.7 µM; IC50 (UACC-257): 24 µM
3 | 11.7 | 2.4 |  |  | 6.6 |  |  |  | Cc1c2cccc-2ccc2c1[nH]c1ccccc12 | IC50 (U-251): 1.48 µM; IC50 (UO-31): 1.62 µM
4 | 20.9 | 3.98 |  |  | 17.4 | 0.56 |  |  | Cc1c2cccc-2c(N(C)C)cc2c1[nH]c1ccccc12 | IC50 (PC-3): 1.41 µM
5 |  | 2.75 |  | 14.5 |  | 1.38 | 0.51 | 11.2 | CC(=O)OCCOc1cc2c([nH]c3ccccc32)c(C)c2cccc1-2 | 
6 |  | 2.19 |  |  |  |  | 3.8 | 1.38 | CC(=O)Oc1ccc2[nH]c3c(C)c4cccc-4ccc3c2c1 | IC50 (IGROV-1): 1.58 µM; IC50 (SR): 4.57 µM
